The values below come from patent US20260240844A1, “INHIBITORS OF CHD1L AND USES THEREOF” (The Regents of the University of Colorado, a body corporate, priority 2023, published 2026).

Type in all cases: cell-based
Data set [1] deals with SUM149PT cells. Kind of data set: Cell cycle analysis by flow cytometry. The procedure:
Cells were then harvested by trypsinization, washed with PBS and fixed with 70% ice-cold ethanol for at least 2 h. The fixed cells were centrifuged at 300 g for 10 min, resuspended in PBS, centrifuged again, and stained in a 0.5 μg/mL DAPI solution in 0.1% Triton X-100-PBS for 30 min at RT. Samples were measured on a NovoCyte Penteon Cytometer (Agilent) and cell cycle distribution of single cells was analyzed using the automatic settings of FlowJo V10 (BD Biosciences).
Upon generation of DNA lesions, DNA damage checkpoints are also activated, which can lead to an arrest of the cell cycle, restraining chromosome segregation until the damaged DNA has been repaired. To study the effect of TNBC therapies and inhibition of CHD1L on the cell cycle, cells were stained with DAPI, and the cell subpopulations in G1, S and G2/M phases were analyzed by flow cytometry. […] Remarkably, the combination of these drugs with CHD1Li enhanced their effects, potentiating G2/M arrest caused by olaparib and G1 arrest caused by 5-FU (FIG. 23).
In general terms: A flow cytometer gives signals particle by particle.

The test system of data set [2] is MDA-MB-231 tumor organoids. The experiment in a line: Tumor organoid cytotoxicity, MDA-MB-231. The note with it: for IC50: Homo sapiens. The procedure:
Tumor organoid culture—Cell lines were cultured as tumor organoids by seeding 2,000 to 5,000 cells/well into uncoated 96 well U-bottom Ultra Low Attachment Microplates (Corning) using their corresponding medium. Cell aggregation was then promoted by centrifugation of the plates for 15 min at 1,000 rpm followed by the addition of Matrigel (Corning) to a 2-5% final concentration. Tumor organoids were maintained under standard cell culture conditions for 72 h prior to drug treatment.
Organoids were then transferred to a white solid bottom 96 well plate and incubated with an equal volume of CellTiter Glo 3D reagent (Promega) for 45 min on a shaker at 400 rpm. Luminescence was recorded using the EnVision plate reader (PerkinElmer) and values normalized to the controls using GraphPad Prism.

In data set [3] the test system is SUM149PT tumor organoids. Kind of data set: Tumor organoid cytotoxicity (CellTiter Glo 3D), SUM149PT. The note with it: for IC50: Homo sapiens; for increase in potency of the chemotherapy: SUM149PT BRCA1 mutant tumor organoids, + 1.9 μM Compound 6; for improvement of IC50 potency: combined with Compound 6; for mean synergy score (Bliss): SUM149PT cells. As for the experimental part: Tumor organoid culture—Cell lines were cultured as tumor organoids by seeding 2,000 to 5,000 cells/well into uncoated 96 well U-bottom Ultra Low Attachment Microplates (Corning) using their corresponding medium.
Luminescence was recorded using the EnVision plate reader (PerkinElmer) and values normalized to the controls using GraphPad Prism.
On the technique in general: Cellular ATP, detected with luciferase, serves as a proxy for viable cell number.

For data set [4], the target named is T1, CHD1L (Homo sapiens, UniProt Q86WJ1).
T1 sequence (Q86WJ1 1-897): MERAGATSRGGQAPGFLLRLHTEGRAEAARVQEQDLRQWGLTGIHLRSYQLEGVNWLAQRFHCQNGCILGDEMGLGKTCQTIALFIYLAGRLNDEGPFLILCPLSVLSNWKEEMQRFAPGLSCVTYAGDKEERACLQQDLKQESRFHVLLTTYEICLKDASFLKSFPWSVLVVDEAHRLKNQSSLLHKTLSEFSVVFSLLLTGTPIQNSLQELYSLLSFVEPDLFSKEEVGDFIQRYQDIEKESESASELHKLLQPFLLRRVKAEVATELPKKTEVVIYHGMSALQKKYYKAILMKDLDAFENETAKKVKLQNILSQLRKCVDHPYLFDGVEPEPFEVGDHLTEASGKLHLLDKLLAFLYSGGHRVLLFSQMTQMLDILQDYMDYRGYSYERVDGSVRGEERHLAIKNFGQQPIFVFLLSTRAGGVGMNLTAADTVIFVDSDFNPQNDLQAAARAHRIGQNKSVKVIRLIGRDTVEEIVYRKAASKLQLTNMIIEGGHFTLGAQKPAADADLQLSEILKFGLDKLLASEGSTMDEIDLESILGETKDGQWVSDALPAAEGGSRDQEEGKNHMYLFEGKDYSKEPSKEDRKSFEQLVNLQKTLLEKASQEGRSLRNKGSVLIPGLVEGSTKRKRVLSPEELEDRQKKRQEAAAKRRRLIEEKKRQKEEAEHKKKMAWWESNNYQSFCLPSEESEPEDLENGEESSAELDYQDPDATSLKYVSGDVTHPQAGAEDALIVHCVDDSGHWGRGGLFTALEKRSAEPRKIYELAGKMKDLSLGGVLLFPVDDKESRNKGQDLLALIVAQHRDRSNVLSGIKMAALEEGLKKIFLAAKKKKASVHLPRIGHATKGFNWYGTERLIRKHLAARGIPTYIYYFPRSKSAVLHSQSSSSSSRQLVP
The experiment in a line: CHD1L trapping (in situ subcellular fractionation, immunofluorescence). The note with it: for CHD1L trapping onto chromatin/nucleosomes: single agent, SUM149PT + 0.01% MMS 4 h, BC and CRC cells. From the text: Other studies on the role of CHD1L used cell lines with knockdown or knockouts of the gene encoding for CHD1L and have never been able to study the result of its enzymatic inhibition.

Setting [5] is: MDA-MB-231, MDA-MB-231 (BRCA wildtype HR-proficient), read-out: IC50, tumor organoid viability, single agent.

“Also recorded” adds a separate entry of the source. Like-named read-outs stand apart in the source and are kept apart here.

For `O=c1[nH]cc(F)c(=O)[nH]1` [Compound 5-FU, 5-fluorouracil], in data set [1] (24 h), the “increase in number of cells in G1 phase compared to untreated cells” value was found to be 16%. Also, the “IC50 5-FU (μM) in MDA-MB-231” value in data set [2] (Compound 13 0 μM) is “Resistant”. Also, the IC50 (usually the concentration that gives 50% inhibition) in data set [2] (MDA-MB-231, Compound 13 2 μM, read-out: IC50 5-FU (μM) in MDA-MB-231) is 23.5 µM; in data set [2] (MDA-MB-231, Compound 13 2.25 μM, read-out: IC50 5-FU (μM) in MDA-MB-231), 9.1 µM; in data set [2] (MDA-MB-231, Compound 13 2.5 μM, read-out: IC50 5-FU (μM) in MDA-MB-231), 4.6 µM; in data set [3] (SUM149PT, Compound 13 2 μM, read-out: IC50 5-FU (μM) in SUM149PT) it was 23.8 µM; in data set [3] (SUM149PT, Compound 13 2.25 μM, read-out: IC50 5-FU (μM) in SUM149PT), 23 µM; in data set [3] (SUM149PT, Compound 13 2.5 μM, read-out: IC50 5-FU (μM) in SUM149PT) it was 14.4 µM. For the same molecule, the “IC50 5-FU (μM) in SUM149PT” value in data set [3] (Compound 13 0 μM) was “Resistant”. Also, the “increase in potency of the chemotherapy” value in data set [3] turned out to be 10 fold. In addition, the “improvement of IC50 potency” value in data set [3] (SUM149PT tumor organoids) is given as 10 fold.
Regarding `Cc1cc(Nc2ccc(NC(=O)Cc3cccs3)cc2)nc(N2CCCC2)n1` [Compound 6, N-(4-((6-methyl-2-(pyrrolidin-1-yl)pyrimidin-4-yl)amino)phenyl)-2-(thiophen-2-yl)acetamide], in data set [1] (24 hours, 0.2 μM), the cell cycle effect result was “arrest in S and G2/M phases”. The “CHD1L trapping in combination” value in data set [4] (Compound 6 combined with olaparib) is recorded as “complete decrease in the CHD1L trapping”. For the same molecule, the “CHD1L trapping onto chromatin/nucleosomes” value in data set [4] was “dose-dependent increase in CHD1L trapping”. For the same molecule, the IC50 in data set [2] (setting [5]) was 3.3 µM; in data set [3] (SUM149PT, SUM149PT (BRCA1 mutant HR-deficient), read-out: IC50, tumor organoid viability, single agent) it was 1.7 µM. Further, the “Bliss synergy score, cytotoxicity” value in data set [3] (SUM149PT tumor organoids, Compound 6 combined with 5-FU) came to 59.
Take `Cc1cc(Nc2ccc(NC(=O)Cc3cc(Br)cs3)cc2)nc(N2CCCC2)n1` [Compound 6.11, 2-(4-bromothiophen-2-yl)-N-(4-((6-methyl-2-(pyrrolidin-1-yl)pyrimidin-4-yl)amino)phenyl)acetamide]: the IC50 in data set [2] (setting [5]) was ~3.3 µM; in data set [3] (SUM149PT, read-out: IC50, tumor organoid viability, single agent, SUM149PT (BRCA1 mutant HR-deficient)) it was ~1.7 µM. Also, the “mean synergy score (Bliss)” value in data set [3] (combined with 5-FU) is listed as “about 60”; in data set [3] (combined with Olaparib) it was “about 58”; in data set [3] (combined with docetaxel), “about 56”.
For `COc1cccc2c1C(=O)c1c(O)c3c(c(O)c1C2=O)C[C@@](O)(C(=O)CO)C[C@@H]3O[C@H]1C[C@H](N)[C@H](O)[C@H](C)O1` [doxorubicin], the “CHD1L trapping onto chromatin/nucleosomes” value was “do not trap CHD1L” in data set [4]; “does not cause a stable interaction of CHD1L and chromatin” in data set [4] (listed as Doxorubicin). Besides, the IC50 turned out to be 0.346 µM in data set [2] (MDA-MB-231, Compound 13 0 μM, read-out: IC50 doxorubicin (nM) in MDA-MB-231); 0.0922 µM in data set [2] (MDA-MB-231, Compound 13 2 μM, read-out: IC50 doxorubicin (nM) in MDA-MB-231); 0.0815 µM in data set [2] (MDA-MB-231, Compound 13 2.25 μM, read-out: IC50 doxorubicin (nM) in MDA-MB-231); 0.0202 µM in data set [2] (MDA-MB-231, Compound 13 2.5 μM, read-out: IC50 doxorubicin (nM) in MDA-MB-231); 0.505 µM in data set [3] (SUM149PT, Compound 13 0 μM, read-out: IC50 doxorubicin (μM) in SUM149PT); 0.0944 µM in data set [3] (SUM149PT, Compound 13 2 μM, read-out: IC50 doxorubicin (μM) in SUM149PT). Further, the IC50 in data set [3] (SUM149PT, Compound 13 2.25 μM, read-out: IC50 doxorubicin (μM) in SUM149PT) stood at 0.016 µM; in data set [3] (SUM149PT, Compound 13 2.5 μM, read-out: IC50 doxorubicin (μM) in SUM149PT), 0.279 µM; in data set [3] (SUM149PT tumor organoids, 72 h, + non-lethal doses of Compound 6, read-out: IC50 of the drug in combination), 0.28 ± 0.01 µM. The “increase in potency of the chemotherapy” value in data set [3] was 20 fold. The “improvement of IC50 potency” value in data set [3] (SUM149PT tumor organoids) was 2 fold.
Regarding `O=C(c1cc(Cc2n[nH]c(=O)c3ccccc23)ccc1F)N1CCN(C(=O)C2CC2)CC1` [olaparib], the “increase in the percentage of cells in the G2/M phase” value in data set [1] (24 h) came out at 2 fold. In addition, the “CHD1L trapping onto chromatin/nucleosomes” value in data set [4] is recorded as “do not trap CHD1L; also recorded: did not show CHD1L trapping”. The IC50 in data set [2] (MDA-MB-231, Compound 13 0 μM, read-out: IC50 Olaparib (μM) in MDA-MB-231) came to 102 µM; in data set [2] (MDA-MB-231, Compound 13 2 μM, read-out: IC50 Olaparib (μM) in MDA-MB-231), 18.7 µM; in data set [2] (MDA-MB-231, Compound 13 2.25 μM, read-out: IC50 Olaparib (μM) in MDA-MB-231), 12.1 µM; in data set [2] (MDA-MB-231, Compound 13 2.5 μM, read-out: IC50 Olaparib (μM) in MDA-MB-231), 3.1 µM; in data set [3] (SUM149PT, 72 h, read-out: IC50 of the drug alone, SUM149PT tumor organoids, 72 h), 170 ± 27 µM; in data set [3] (SUM149PT, 72 h, read-out: IC50 of the drug in combination, SUM149PT tumor organoids, 72 h, + non-lethal doses of Compound 6), 19 ± 0.56 µM. Also, the IC50 was found to be 400 µM in data set [3] (SUM149PT, read-out: IC50 Olaparib (μM) in SUM149PT, Compound 13 0 μM); 41.8 µM in data set [3] (SUM149PT, read-out: IC50 Olaparib (μM) in SUM149PT, Compound 13 2 μM); 13.4 µM in data set [3] (SUM149PT, read-out: IC50 Olaparib (μM) in SUM149PT, Compound 13 2.25 μM); 19 µM in data set [3] (SUM149PT, read-out: IC50 Olaparib (μM) in SUM149PT, Compound 13 2.5 μM). Besides, the “increase in potency of the chemotherapy” value in data set [3] is given as 10 fold. Further, the “improvement of IC50 potency” value in data set [3] (SUM149PT tumor organoids) is reported as 9 fold.
